Test results: patent publication US20200303198A1, “POLISHING COMPOSITION AND POLISHING METHOD” (FUJIMI INCORPORATED, priority 2019, published 2020)

Assay: Solubility of biocide in water
Format: physicochemical
Conditions: in words

## O=C(OCc1ccccc1)c1ccc(O)cc1 [benzyl paraoxybenzoate]
  solubility in water: poor solubility in water
